Calls of active or inactive are those of the source.
Columns and labels:
Format in all cases: functional, cell-based
Calvarial osteoblast [1] = assay: Cytoprotective activity against serum deprivation-induced apoptosis in mouse calvarial osteoblasts assessed as reduction in apoptotic cells at 1 to 100 pM by Annexin/PI staining based flow cytometric analysis; conditions: dose 1-100 pM
Calvarial osteoblast [2] = assay: Cytoprotective activity against serum deprivation-induced apoptosis in mouse calvarial osteoblasts assessed as increase in Bcl-2 protein expression at 1 to 100 pM by western blot analysis; conditions: dose 1-100 pM
Calvarial osteoblast [3] = assay: Induction of new bone formation in mouse calvarial osteoblasts assessed as increase in intracellular calcium level at 1 to 100 pM by Fluo-4AM dye based assay; conditions: dose 1-100 pM
Calvarial osteoblast [4] = assay: Cytoprotective activity against serum deprivation-induced apoptosis in mouse calvarial osteoblasts assessed as reduction in BAX protein expression at 1 to 100 pM by western blot analysis; conditions: dose 1-100 pM
Calvarial osteoblast [5] = assay: Induction of osteoblast differentiation in mouse calvarial osteoblasts assessed as increase in Type-1 collagen protein expression at 1 to 100 pM after 48 hrs by western blot analysis; conditions: dose 1-100 pM
Calvarial osteoblast [6] = assay: Induction of osteoblast differentiation in mouse calvarial osteoblasts assessed as increase in RUNX-2 mRNA expression at 1 to 100 pM after 48 hrs by qPCR analysis; conditions: dose 1-100 pM
Calvarial osteoblast [7] = assay: Induction of osteoblast differentiation in mouse calvarial osteoblasts assessed as increase in ALP activity at 0.000001 to 1 uM by spectrophotometric analysis; conditions: dose lower 1e-06 µM, dose upper 1.0 µM
Calvarial osteoblast [8] = assay: Induction of osteoblast differentiation in mouse calvarial osteoblasts assessed as increase in RUNX2 protein expression at 1 to 100 pM after 48 hrs by western blot analysis; conditions: dose 1-100 pM
HBMSC = assay: Induction of new bone formation in BMSC cells (unknown origin) assessed as increase in formation of mineralized nodules at 1 to 100 pM; conditions: Homo sapiens, dose 1-100 pM
Calvarial osteoblast [9] = assay: Induction of osteoblast differentiation in mouse calvarial osteoblasts assessed as increase in cell viability at 0.000001 to 1 uM by MTT assay; conditions: dose lower 1e-06 µM, dose upper 1.0 µM
Calvarial osteoblast [10] = assay: Induction of osteoblast differentiation in mouse calvarial osteoblasts assessed as increase in BMP2 mRNA expression at 1 to 100 pM after 48 hrs by qPCR analysis; conditions: dose 1-100 pM
Calvarial osteoblast [11] = assay: Induction of osteoblast differentiation in mouse calvarial osteoblasts assessed as increase in BMP2 protein expression at 1 to 100 pM after 48 hrs by western blot analysis; conditions: dose 1-100 pM
Calvarial osteoblast [12] = assay: Induction of osteoblast differentiation in mouse calvarial osteoblasts assessed as increase in Type-1 collagen mRNA expression at 1 to 100 pM after 48 hrs by qPCR analysis; conditions: dose 1-100 pM

Measured: Activity

CC1(C)C=Cc2ccc(O)c(C3=NNC(c4ccc(Cl)cc4)C3)c2O1 (stereo not drawn)
active: all assays above

CC1(C)C=Cc2c(ccc(C3=NN(c4ccccc4)C(c4ccc(Cl)cc4)C3)c2O)O1 (stereo not drawn)
active: Calvarial osteoblast [7]

CC1(C)C=Cc2ccc(O)c(-c3cc(-c4ccc(Cl)cc4)on3)c2O1
active: Calvarial osteoblast [7]

CC(C)=CCC1(C)C=Cc2ccc(O)c(C(=O)/C=C/c3ccc(Cl)cc3)c2O1 (stereo not drawn)
active: Calvarial osteoblast [7]

CC1(C)C=Cc2c(ccc(C(=O)/C=C/c3ccc(Cl)cc3)c2O)O1
active: Calvarial osteoblast [7]

CC(=O)N1N=C(c2c(O)ccc3c2OC(C)(C)C=C3)CC1c1ccc(Cl)cc1 (stereo not drawn)
active: Calvarial osteoblast [7]
